pIC50: −log10 of the molar value.

For this assay, the target named is T1, hTRPV3 (Homo sapiens, UniProt Q8NET8).
T1 construct: The commercially available plasmid with the full-length cDNA of hTRPV3 (791 aa) (NM_001258205.2); host or cells: HEK293T
T1 sequence (Q8NET8 1-791 isoform Q8NET8-2): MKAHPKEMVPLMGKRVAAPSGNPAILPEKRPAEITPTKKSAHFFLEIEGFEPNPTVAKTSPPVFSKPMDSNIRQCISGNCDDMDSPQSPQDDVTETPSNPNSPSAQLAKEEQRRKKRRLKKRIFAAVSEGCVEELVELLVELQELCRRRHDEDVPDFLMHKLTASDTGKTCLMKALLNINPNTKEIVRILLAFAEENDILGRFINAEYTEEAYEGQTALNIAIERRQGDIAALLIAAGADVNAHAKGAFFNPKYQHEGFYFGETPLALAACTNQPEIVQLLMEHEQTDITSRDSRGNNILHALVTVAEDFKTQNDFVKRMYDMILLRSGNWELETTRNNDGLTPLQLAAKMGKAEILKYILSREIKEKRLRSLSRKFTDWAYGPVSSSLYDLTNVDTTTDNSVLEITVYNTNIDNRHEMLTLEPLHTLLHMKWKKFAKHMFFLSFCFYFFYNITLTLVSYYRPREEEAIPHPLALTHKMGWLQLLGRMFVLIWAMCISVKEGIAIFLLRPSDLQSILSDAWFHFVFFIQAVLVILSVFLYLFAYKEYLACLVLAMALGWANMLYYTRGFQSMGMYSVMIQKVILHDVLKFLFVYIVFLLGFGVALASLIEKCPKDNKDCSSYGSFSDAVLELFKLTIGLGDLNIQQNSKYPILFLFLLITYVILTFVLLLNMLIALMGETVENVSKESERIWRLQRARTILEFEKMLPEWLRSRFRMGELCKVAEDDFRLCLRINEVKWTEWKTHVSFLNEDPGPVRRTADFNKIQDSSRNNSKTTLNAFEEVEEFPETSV
The assay is described as follows: Whole-cell patch-clamp recording of hTRPV3 current in transfected HEK293T cells (2-APB induced). It is filed as cell-based. The settings on record: current induced by 300 μM 2-APB, compounds tested up to 10 μM, room temperature. Here is the method:
Various technologies can be utilized to assess TRPV3 activation in accordance with the present disclosure. For example, in some embodiments, compounds are assessed in in vitro patch clamp experiments. Certain useful procedures are described herein as examples.
In some embodiments, whole-cell patch-clamp recordings were used to detect the current through hTRPV3 channels in the HEK293T cell line transfected with hTRPV3 cDNA and evaluate the exact blocking effect of compounds on hTRPV3. In some embodiments, a perfusion system was adopted to control the extracellular solution, including the addition of the agonist and different antagonists.
HEK293T cells were cultured in a Dulbecco's modified Eagle's medium containing 10% fetal bovine serum (Thermo Scientific) and 1% penicillin/streptomycin (Thermo Scientific) at 37° C. with 5% CO2. The commercially available plasmid with the full-length cDNA of hTRPV3 (791 aa) (NM_001258205.2) was purchased from OriGene Technologies. The transfection of hTRPV3 plasmids was conducted using Lipofectamine™ 3000 following the manufacturer's instructions (Invitrogen).
Whole-cell patch-clamp experiments were performed 18 h post-transfection, using a MultiClamp 700B amplifier driven by pClamp 11 software (Molecular Devices). In order to achieve good single-cell physical separation, HEK293T cells with hTRPV3 expression were digested and then re-plated at low density on glass coverslips. Electrodes were pulled from borosilicate glass with a P-97 micropipette puller (Sutter Instruments) and those with resistances of 3-5 MΩ are used for experiments. In some embodiments, an Ag—AgCl wire was used as a reference electrode and signals are filtered using a 2.9 kHz low-pass Bessel filter. Membrane potential was held at 0 mV. For recording of agonist-induced activation and inhibition by different test compounds, currents were elicited by a protocol consisting of a 400-ms step to +80 mV, followed by a 400-ms step to −80 mV at 2-s intervals. both pipette and bath solutions contained 130 mM NaCl, 0.3 mM EDTA, and 3 mM HEPES (buffered to pH 7.4 with NaOH). All recordings were made at room temperature.
All patch-clamp recordings were analyzed using the Clampfit software and GraphPad Prism 6.0 software. Specifically, data are analyzed by calculating the degree of current amplitude after the test compound addition compared with the unblocked agonist-induced current amplitude. The resulting blocking percentage at each concentration was used to make a concentration-response analysis and fitted to the Hill equation: blocking percentage=minimum blocking percentage+ (maximum blocking percentage-minimum blocking percentage)/(1+10^(Hill slope* […])). The minimum blocking percentage is 0% and maximum blocking percentage is 100%, while the Hill slope and the IC50 were determined as the curve fitting routine. Compounds of interest were tested against hTRPV3 at concentrations up to 10 μM, and certain data was used to estimate IC50 as described herein.
Background: In patch-clamp work, channel activity is measured electrically.
A word on the pIC50: it is the negative decadic logarithm of the IC50, by convention in mol/L. A higher pIC50 goes with a small IC50. Take `COc1ncnc(OC)c1C(=O)Nc1nc2c(s1)COc1cc(C(F)(F)F)ccc1-2` [compound 1, 4,6-dimethoxy-N-(7-(trifluoromethyl)-4H-chromeno[4,3-d]thiazol-2-yl)pyrimidine-5-carboxamide]: the pIC50 is 6.00 to 7.00.

The molecule `COc1ncnc(OC)c1C(=O)Nc1nc2c(s1)CCc1ccccc1-2` [compound 2, N-(4,5-dihydronaphtho[1,2-d]thiazol-2-yl)-4,6-dimethoxypyrimidine-5-carboxamide] gave a negative-log IC50 (pIC50) of no more than 5.00. Consider `COc1ncnc(OC)c1C(=O)Nc1nc2c(s1)CCc1ccc(Cl)cc1-2` [compound 3, N-(8-chloro-4,5-dihydronaphtho[1,2-d]thiazol-2-yl)-4,6-dimethoxypyrimidine-5-carboxamide], for which the negative logarithm of the IC50 (pIC50) is 5.00 to 6.00.

Consider `COc1ncnc(OC)c1C(=O)Nc1nc2c(s1)CCCc1ccccc1-2` [compound 4, N-(5,6-dihydro-4H-benzo[6,7]cyclohepta[1,2-d]thiazol-2-yl)-4,6-dimethoxypyrimidine-5-carboxamide], for which the pIC50 was no more than 5.00. `COc1ncnc(OC)c1C(=O)Nc1nc2c(s1)CSc1ccc(Cl)cc1-2` [compound 5, N-(8-chloro-4H-thiochromeno[4,3-d]thiazol-2-yl)-4,6-dimethoxypyrimidine-5-carboxamide] had a pIC50 of no more than 5.00. `COc1ncnc(OC)c1C(=O)Nc1nc2c(s1)COc1cc(Br)ccc1-2` [compound 6, N-(7-bromo-4H-chromeno[4,3-d]thiazol-2-yl)-4,6-dimethoxypyrimidine-5-carboxamide] gave a negative-log IC50 (pIC50) of no more than 5.00. In turn, `COc1ncnc(OC)c1C(=O)Nc1nc2c(s1)Cc1ccc(Cl)cc1-2` [compound 7, N-(5-chloro-8H-indeno[1,2-d]thiazol-2-yl)-4,6-dimethoxypyrimidine-5-carboxamide] showed a negative-log IC50 (pIC50) of 5.00 to 6.00.

`COc1ncnc(OC)c1C(=O)Nc1nc2c(s1)C(C)(C)Oc1cc(C(F)(F)F)ccc1-2` [compound 8, N-(4,4-dimethyl-7-(trifluoromethyl)-4H-chromeno[4,3-d]thiazol-2-yl)-4,6-dimethoxypyrimidine-5-carboxamide]: the pIC50 is 6.00 to 7.00. `COc1ncnc(OC)c1C(=O)Nc1nc2c(s1)c(=O)oc1cc(C(F)(F)F)ccc12` [compound 9, 4,6-dimethoxy-N-(4-oxo-7-(trifluoromethyl)-4H-chromeno[4,3-d]thiazol-2-yl)pyrimidine-5-carboxamide] had a negative logarithm of the IC50 (pIC50) of no more than 5.00. The result for `COc1ncnc(OC)c1C(=O)Nc1nc2c(s1)COc1cc(F)ccc1-2` [compound 10, N-(7-fluoro-4H-chromeno[4,3-d]thiazol-2-yl)-4,6-dimethoxypyrimidine-5-carboxamide] reads no more than 5.00. The same measure for `COc1ccc2c(c1)OCc1sc(NC(=O)c3c(OC)ncnc3OC)nc1-2` [compound 11, 4,6-dimethoxy-N-(7-methoxy-4H-chromeno[4,3-d]thiazol-2-yl)pyrimidine-5-carboxamide]: no more than 5.00; for `COc1ncnc(OC)c1C(=O)Nc1nc2c(s1)C1(CCCN(C(=O)OC(C)(C)C)C1)Oc1cc(C(F)(F)F)ccc1-2` (stereo not drawn) [compound 12, tert-butyl 2-(4,6-dimethoxypyrimidine-5-carboxamido)-7-(trifluoromethyl)spiro[chromeno[4,3-d]thiazole-4,3′-piperidine]-1′-carboxylate]: 6.00 to 7.00. The molecule `COc1ncnc(OC)c1C(=O)Nc1nc2c(s1)C1(CCCCC1)Oc1cc(C(F)(F)F)ccc1-2` [compound 13, 4,6-dimethoxy-N-(7-(trifluoromethyl)spiro[chromeno[4,3-d]thiazole-4,1′-cyclohexan]-2-yl)pyrimidine-5-carboxamide] had a negative logarithm of the IC50 (pIC50) greater than 7.00.

`COc1ncnc(OC)c1C(=O)Nc1nc2c(s1)COc1cc(OC(=O)C(C)(C)C)ccc1-2` [compound 14, 2-(4,6-dimethoxypyrimidine-5-carboxamido)-4H-chromeno[4,3-d]thiazol-7-yl pivalate]: the negative-log IC50 (pIC50) was 5.00 to 6.00. The molecule `COc1ncnc(OC)c1C(=O)Nc1nc2c(s1)COc1c-2cccc1C(F)(F)F` [compound 15, 4,6-dimethoxy-N-(6-(trifluoromethyl)-4H-chromeno[4,3-d]thiazol-2-yl)pyrimidine-5-carboxamide] gave a pIC50 of no more than 5.00. The same measure for `COc1ncnc(OC)c1C(=O)Nc1nc2c(s1)COc1ccc(C)cc1-2` [compound 16, 4,6-dimethoxy-N-(8-methyl-4H-chromeno[4,3-d]thiazol-2-yl)pyrimidine-5-carboxamide]: no more than 5.00; for `COc1ccc2c(c1)-c1nc(NC(=O)c3c(OC)ncnc3OC)sc1CO2` [compound 17, 4,6-dimethoxy-N-(8-methoxy-4H-chromeno[4,3-d]thiazol-2-yl)pyrimidine-5-carboxamide]: no more than 5.00; for `COc1ncnc(OC)c1C(=O)Nc1nc2c(s1)C1(CCC(C(C)(C)C)CC1)Oc1cc(C(F)(F)F)ccc1-2` (stereo not drawn) [compound 18, N-(4′-(tert-butyl)-7-(trifluoromethyl)spiro[chromeno[4,3-d]thiazole-4,1′-cyclohexan]-2-yl)-4,6-dimethoxypyrimidine-5-carboxamide]: 5.00 to 6.00. Molecule `COc1ncnc(OC)c1C(=O)NC1=NC2c3ccc(C(F)(F)F)cc3OC3(CCC3)C2S1` (stereo not drawn) [compound 19, 4,6-dimethoxy-N-(7-(trifluoromethyl)-3a,9b-dihydrospiro[chromeno[4,3-d]thiazole-4,1′-cyclobutan]-2-yl)pyrimidine-5-carboxamide] showed a negative logarithm of the IC50 (pIC50) of 6.00 to 7.00. The result for `COc1ncnc(OC)c1C(=O)Nc1nc2c(s1)C1(Oc3cc(C(F)(F)F)ccc3-2)C2CC3CC(C2)CC1C3` (stereo not drawn) [compound 20, 4,6-dimethoxy-N-(7′-(trifluoromethyl)spiro[adamantane-2,4′-chromeno[4,3-d]thiazol]-2′-yl)pyrimidine-5-carboxamide] reads 6.00 to 7.00; that for `COc1ncnc(OC)c1C(=O)Nc1nc2c(s1)C1(CCOC1)Oc1cc(C(F)(F)F)ccc1-2` (stereo not drawn) [compound 21, 4,6-dimethoxy-N-(7-(trifluoromethyl)-4′,5′-dihydro-2′H-spiro[chromeno[4,3-d]thiazole-4,3′-furan]-2-yl)pyrimidine-5-carboxamide], 6.00 to 7.00; that for `COc1ncnc(OC)c1C(=O)Nc1nc2c(s1)CCc1cc(C(F)(F)F)ccc1-2` [compound 22, 4,6-dimethoxy-N-(7-(trifluoromethyl)-4,5-dihydronaphtho[1,2-d]thiazol-2-yl)pyrimidine-5-carboxamide], no more than 5.00. The molecule `COc1ncnc(OC)c1C(=O)Nc1nc2c(s1)C1(CCCC1)Oc1cc(C(F)(F)F)ccc1-2` [compound 23, 4,6-dimethoxy-N-(7-(trifluoromethyl)spiro[chromeno[4,3-d]thiazole-4,1′-cyclopentan]-2-yl)pyrimidine-5-carboxamide] had a negative logarithm of the IC50 (pIC50) of 6.00 to 7.00. Regarding `CCC1(CC)Oc2cc(C(F)(F)F)ccc2-c2nc(NC(=O)c3c(OC)ncnc3OC)sc21` [compound 24, N-(4,4-diethyl-7-(trifluoromethyl)-4H-chromeno[4,3-d]thiazol-2-yl)-4,6-dimethoxypyrimidine-5-carboxamide], the negative-log IC50 (pIC50) was greater than 7.00.

These data come from patent US20260217697A1, “COMPOUNDS COMPRISING HETEROARYL RINGS AND COMPOSITIONS AND METHODS THEREOF” (lonGen Therapeutics Co., Ltd., priority 2022, published 2026).
